Measured values as given in patent publication US5962487A, “Antipicornaviral compounds and methods for their use and preparation” (Agouron Pharmaceuticals, Inc., priority 1997, dated 1999).
pEC50, pKi: −log10 of the molar value.

How the values were obtained:
[1] = biological target: T1, Rhinovirus 3C protease (RVP) serotype 2 (Human rhinovirus 2, UniProt P04936); experiment: Inhibition of Rhinovirus Protease, serotype 2 (FRET assay); assay type: biochemical; details: enzyme start experiments, read-out: kobs/I
T1 construct: Recombinant Rhinovirus 3C proteases from serotypes 14, 16, 2 or 89 were prepared; made in house
T1 sequence (P04936 1508-1690): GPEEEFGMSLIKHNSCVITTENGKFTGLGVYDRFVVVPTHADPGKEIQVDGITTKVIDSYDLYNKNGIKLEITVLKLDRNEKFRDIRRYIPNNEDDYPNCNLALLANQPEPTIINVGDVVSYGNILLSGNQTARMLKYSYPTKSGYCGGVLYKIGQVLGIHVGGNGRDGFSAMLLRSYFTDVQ
Description: (§1) Stock solutions (50 mM, in DMSO) of various compounds were prepared; dilutions were in the same solvent. Recombinant Rhinovirus 3C proteases from serotypes 14, 16, 2 or 89 were prepared by the following standard chromatographic procedures: (1) ion exchange using Q Sepharose Fast Flow from Pharmacia; (2) affinity chromatography using Affi-Gel Blue from Biorad; and (3) sizing using Sephadex G-100 from Pharmacia. Assays contained 2% DMSO, 50 mM tris pH 7.6, 1 mM EDTA, a compound at the indicated concentrations, approximately 1 μM substrate, and 50-100 nM protease. For Ki determinations, the compound and the enzyme were preincubated for 10 minutes at 30° C. prior to addition of the substrate (substrate start). The kobs/I values were obtained from reactions initiated by addition of enzyme rather than substrate. RVP activity is measured in the fluorescence resonance energy transfer assay. The substrate was (N-terminal) DABCYL-(Gly-Arg-Ala-Val-Phe-Gln-Gly-Pro-Val-Gly)-EDANS. In the uncleaved peptide, the EDANS fluorescence was quenched by the proximal DABCYL moiety. When the peptide was cleaved, the quenching was relieved, and activity was measured as an increase in fluorescence signal.
(§2) In the above table, all data is for RVP serotype-14 unless otherwise noted in parentheses. All strains of human rhinovirus (HRV) were purchased from American Type Culture Collection (ATCC), except for serotype 14, which was produced from the infectious cDNA clone constructed and supplied to us by Dr. Roland Rueckert at the Institute for Molecular Virology, University of Wisconsin, Madison, Wis. The column designated INHIB represents the percent inhibition, with the concentration of the compound in μM indicated in parentheses, unless Ki was assigned as designated by (Ki), at 10 minute preincubation with 50 nM RVP prior to addition of substrate was used. The data in the column designated kobs/I was measured from progress curves in enzyme start experiments.

[2] = system: HRV-14; experiment: Antirhinoviral HI-HeLa Cell Culture Assay (cell protection, XTT), HRV-14; assay type: cell-based, human rhinovirus; details: for TI: CC50/EC50, HRV serotype-14, 2880 min; for pEC50: Rhinovirus B, HRV14, 48 h, HRV serotype-14 infected HI-HeLa cells, XTT, two days
Method in brief: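 HI-HeLa cells infected at m.o.i. 0.13 (or mock-infected), 8×10^5 cells/mL, incubated with compounds for two days; XTT/PMS formazan read at 450/650 nm. EC50 is the concentration restoring formazan in infected cells to 50% of compound-free mock-infected; CC50 is 50% decrease in mock-infected cells; TI = CC50/EC50.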

[3] = biological target: T2, Rhinovirus 3C protease (RVP) serotype 16 (Human rhinovirus 16, UniProt Q82122); experiment: Inhibition of Rhinovirus Protease, serotype 16 (FRET assay); assay type: biochemical; details: enzyme start experiments, read-out: kobs/I
T2 construct: Recombinant Rhinovirus 3C proteases from serotypes 14, 16, 2 or 89 were prepared; made in house
T2 sequence (Q82122 1511-1693): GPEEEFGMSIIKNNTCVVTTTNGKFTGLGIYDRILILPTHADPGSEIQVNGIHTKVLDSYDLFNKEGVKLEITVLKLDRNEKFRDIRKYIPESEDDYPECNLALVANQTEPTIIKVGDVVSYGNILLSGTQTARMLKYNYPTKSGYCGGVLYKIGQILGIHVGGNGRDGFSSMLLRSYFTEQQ
Description: as §1, §2

[4] = system: CVA-21; experiment: Anticoxsackieviral HI-HeLa Cell Culture Assay, CVA-21; assay type: cell-based, Coxsackie strain A-21
Description: (§3) The ability of compounds to protect cells against CVA-21 or CVB-3 infection was measured by the XTT dye reduction method. Briefly, HI-HeLa cells were infected with CVA-21 or CVB-3 at a multiplicity of infection (m.o.i.) of 0.05 (CVA-21) and 0.08 (CVB-3) or mock-infected with medium only. Infected or uninfected cells were resuspended at 4×10^4 cells per mL and incubated with appropriate concentrations of drug. One day later, XTT/PMS was added to test plates, and the amount of formazan produced was quantified spectrophotometrically at 450/650 nm. The EC50 was calculated as the concentration of drug that increased the percentage of formazan production in drug-treated, virus-infected cells to 50% of that produced by drug-free, uninfected cells. The 50% cytotoxic dose (CC50) was calculated as the concentration of drug that decreased the percentage of formazan produced in drug-treated, uninfected cells to 50% of that produced in drug-free, uninfected cells. The therapeutic index (TI) was calculated by dividing the CC50 by the EC50.
(§4) The Coxsackie strains A-21 (CVA-21) and B-3 (CVB-3) were purchased from American Type Culture Collection (ATCC). Virus stocks were propagated and antiviral assays were performed in HI-HeLa cells (ATCC). Cells were grown in Minimal Essential Medium with 10% fetal bovine serum.

[5] = in vitro; assay type: cell-based; details: human, hi-hela cells
Method in brief: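 HI-HeLa cells infected with HRV-14 at m.o.i. 0.13 or mock-infected, incubated with compounds for two days; XTT/PMS formazan read at 450/650 nm. EC50 as concentration restoring formazan to 50% of mock-infected level; CC50 from mock-infected cells; TI = CC50/EC50.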

[6] = biological target: T3, Rhinovirus 3C protease (RVP) serotype-14 (Human rhinovirus 14, UniProt P03303); experiment: Inhibition of Rhinovirus Protease, serotype 14 (FRET assay); assay type: biochemical; details: for kinact/KI: read-out: kobs/I
T3 construct: Recombinant Rhinovirus 3C proteases from serotypes 14, 16, 2 or 89 were prepared; made in house
T3 sequence (P03303 1538-1719): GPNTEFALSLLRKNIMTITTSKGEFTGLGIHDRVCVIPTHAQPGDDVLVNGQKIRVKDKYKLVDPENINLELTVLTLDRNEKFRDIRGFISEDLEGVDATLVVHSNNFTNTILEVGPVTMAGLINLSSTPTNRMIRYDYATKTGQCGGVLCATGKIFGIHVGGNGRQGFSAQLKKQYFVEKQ
Method in brief: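 Recombinant HRV 3C protease (50–100 nM) in 50 mM tris pH 7.6, 1 mM EDTA, 2% DMSO, with ~1 μM DABCYL-GRAVFQGPVG-EDANS FRET substrate; cleavage read as fluorescence increase. Ki: compound and enzyme preincubated 10 min at 30° C before substrate start; kobs/I from enzyme-start progress curves. Values are percent inhibition at stated μM, or Ki.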

[7] = system: ECHO-11; experiment: Echovirus-11 MRC5 Cell Culture Assay; assay type: cell-based, Echovirus strain 11
Description: (§5) The Echovirus strain 11 (ECHO-11) and Enterovirus strain 70 (ENT-70) were purchased from American Type Culture Collection (ATCC). Virus stocks were propagated and antiviral assays were performed in MRC5 cells (ATCC). Cells were grown in Minimal Essential Medium with 10% fetal bovine serum.
as §3, with “ECHO-11” for “CVA-21”, “ENT-70” for “CVB-3”, “MRC5” for “HI-HeLa”, “0.0013 (ECHO-11)” for “0.05 (CVA-21)”, “0.0017 (ENT-70)” for “0.08 (CVB-3)”, “2×10^4” for “4×10^4”

[8] = system: ENT-70; experiment: Enterovirus-70 MRC5 Cell Culture Assay; assay type: cell-based, Enterovirus strain 70
Description: as §5
as §3, with “ECHO-11” for “CVA-21”, “ENT-70” for “CVB-3”, “MRC5” for “HI-HeLa”, “0.0013 (ECHO-11)” for “0.05 (CVA-21)”, “0.0017 (ENT-70)” for “0.08 (CVB-3)”, “2×10^4” for “4×10^4”

[9] = system: MRC5 cells; experiment: in vitro; assay type: cell-based
Description: as §5
as §3, with “ECHO-11” for “CVA-21”, “ENT-70” for “CVB-3”, “MRC5” for “HI-HeLa”, “0.0013 (ECHO-11)” for “0.05 (CVA-21)”, “0.0017 (ENT-70)” for “0.08 (CVB-3)”, “2×10^4” for “4×10^4”

[10] = in vitro; assay type: cell-based; details: human, mrc5 cells
Description: as §5
as §3, with “ECHO-11” for “CVA-21”, “ENT-70” for “CVB-3”, “MRC5” for “HI-HeLa”, “0.0013 (ECHO-11)” for “0.05 (CVA-21)”, “0.0017 (ENT-70)” for “0.08 (CVB-3)”, “2×10^4” for “4×10^4”

[11] = in vitro; assay type: cell-based; details: human, hi-hela cells; remark: listed apart in the source
Description: as §3, §4

[12] = system: HRV 1A; experiment: Antirhinoviral HI-HeLa Cell Culture Assay (cell protection, XTT), HRV 1A; assay type: cell-based, human rhinovirus
Description: (§6) In the Cell Protection Assay, the ability of compounds to protect cells against HRV infection was measured by the XTT dye reduction method. This method is described in O. S. Weislow, R. Kiser, D. L. Fine, J. Bader, R. H. Shoemaker, and M. R. Boyd, J. Natl. Cancer Inst. 1989, 81, 577-586, which document is entirely incorporated herein by reference.
(§7) HI-HeLa cells were infected with HRV-14 (unless otherwise noted) at a multiplicity of infection (m.o.i.) of 0.13 (virus particles/cell) or mock-infected with medium only. Infected or mock-infected cells were resuspended at 8×10^5 cells per mL and incubated with appropriate concentrations of compounds of formulas I and II. Two days later, XTT/PMS was added to test plates, and the amount of formazan produced was quantified spectrophotometrically at 450/650 nm. The EC50 was calculated as the concentration of compound that increased the percentage of formazan production in compound-treated, virus-infected cells to 50% of that produced by compound-free mock-infected cells. The 50% cytotoxic dose (CC50) was calculated as the concentration of compound that decreased the percentage of formazan produced in compound-treated, mock-infected cells to 50% of that produced in compound-free, mock-infected cells. The therapeutic index (TI) was calculated by dividing the CC50 by the EC50. […]

[13] = system: HRV 10; experiment: Antirhinoviral HI-HeLa Cell Culture Assay (cell protection, XTT), HRV 10; assay type: cell-based, human rhinovirus
Description: as §6, §7

SMILES	kinact/KI [1] [M⁻¹ s⁻¹]	TI [2]	pEC50 [2]	kinact/KI [3] [M⁻¹ s⁻¹]	pEC50 ([4]; 24 h, CVA-21 infection of Hi-HeLa cells, XTT, one day)	TI ([4]; CC50/EC50, CVA-21)	CC50 at 48 h [5] [µM]	pKi ([6]; RVP serotype-14, 10 minute preincubation with 50 nM RVP prior to addition of substrate, read-out: INHIB (Ki))	kinact/KI [6] [M⁻¹ s⁻¹]	TI ([7]; CC50/EC50, ECHO-11, 1440 min)	pEC50 ([7]; Echovirus, 24 h, ECHO-11 infection of MRC5 cells, XTT, one day)	TI ([8]; CC50/EC50, ENT-70, 1440 min)	pEC50 ([8]; Enterovirus, 24 h, ENT-70 infection of MRC5 cells, XTT, one day)	CC50 [9] [µM]	CC50 at 24 h [10] [µM]	CC50 at 24 h [11] [µM]	TI ([12]; CC50/EC50, HRV 1A, 2880 min)	pEC50 ([12]; Human rhinovirus sp., HRV 1A infected HI-HeLa cells)	TI ([13]; CC50/EC50, HRV 10, 2880 min)	pEC50 ([13]; Human rhinovirus sp., HRV 10 infected HI-HeLa cells)
CCOC(=O)/C=C/[C@H](CCC(N)=O)NC(=O)[C@H](Cc1ccc(OC)cc1)N(C)C(=O)[C@H](CC(C)C)NC(=O)SCC [Compound 4]	541	870	6.64	2010	5.74	111	200	5.54	43800	62.5	5.49	667	6.52	200	200	200				
CCOC(=O)/C=C/[C@H](CCC(N)=O)NC(=O)[C@H](Cc1ccccc1)N(C)C(=O)[C@@H](NC(=O)SCC)C(C)C [Compound 34, Ethyl-3-(Ethylthiocarbonyl-L-Val-L-N-Me-Phe-L-Gln)-E-Propenoate]	940	> 312	6.49	2060			> 100		13400											
CCOC(=O)/C=C/[C@H](CCC(N)=O)NC(=O)[C@H](Cc1ccccc1)N(C)C(=O)[C@@H](NC(=O)SC1CCCC1)C(C)C [Compound 35, Ethyl-3-(Cyclopentylthiocarbonyl-L-Val-L-N-Me-PHe-L-Gln-)-E-Propenoate]	1600	> 526	6.72	3480			> 100		22500											
CCSC(=O)N[C@@H](CC(C)C)C(=O)N(C)[C@@H](Cc1ccccc1)C(=O)N[C@H](/C=C/C(=O)N(C)OC)CCC(N)=O [Compound 36, N-Methoxy-N-Methyl-3-(Ethylthiocarbonyl-L-Leu-L-N-Me-Phe-L-Gln)-E-Propenamide]	400	> 9	4.95	750			> 100		2000											
CCOC(=O)/C=C/[C@H](CCC(N)=O)NC(=O)[C@@H]1CCc2ncc(NC(=O)OCc3ccccc3)c(=O)n21 [Compound 37, Ethyl-3-[(S)-3-(CBZ-Amino)4-Oxo-4,6,7,8-Tetrahydropyrrolo [1,2-α]Pyrimidine-6-L-Gln]-E-Propenoate]	2500	> 11	5.05	4000			> 100		12400											
CCOC(=O)/C=C/[C@H](CCC(N)=O)NC(=O)[C@H](Cc1ccccc1)N(C)C(=O)[C@H](CC(C)C)NC(=O)c1cc(C)on1 [Compound 59]		> 714	6.85				> 100		108000								> 250	6.40	> 250	6.40
